The source of these data is patent publication US20260144769A1, “4-PHENYLBUTYRATE RESTORED GABA UPTAKE AND REDUCED SEIZURES IN SLC6A1 VARIANT-MEDIATED DISORDERS” (Vanderbilt University, priority 2022, published 2026).

Data set [1] has as its target T1, GAT-1 in corrected isogenic control astrocytes (Homo sapiens, UniProt P30531).
T1 construct: endogenous in cells; host or cells: astrocytes differentiated from CRISPR-corrected isogenic control iPSCs
The experiment in a line: 3H GABA uptake, corrected isogenic control iPSC derived astrocytes. The class given is cell-based. The settings on record: PBA 2 mM, 24 hrs. How it is done:
Live images of human neural progenitor cells (NPCs), astrocytes and GABAergic inhibitory neurons differentiated from the human induced pluripotent stem cells (iPSCs) on the day of experiment. […] The DMSO treated corrected or patient cells was taken as 1. […] GABA flux was measured after 30 min transport at room temperature. The influx of GABA, expressed in pmol/μg protein/min, was averaged from duplicates for each condition and for each transfection. The average counting was DMSO treated condition taken as 1. In FIG. 5B, FIG. 5D and FIG. 5F, 966 stands for CI-966 (50 μM) and 711 stands for NNC-711 (35 μM) that was applied 30 min to the astrocytes transfected with the wildtype GAT-1^YFP before preincubation and removed during preincubation. In FIGS. 5B and D, ***p<0.001 vs. corrected DMSO treated. § § <0.01, § § § p<0.001 vs. patient DMSO treated. […] In FIGS. 5B-E, n=4-8 batches of cells. In FIG. 5F, n=4-5 different transfections). Unpaired t test was used for FIG. 5C and FIG. 5E. […] Values were expressed as mean±S.E.M.). […]
Briefly, cells were cultured in […] dishes for 3 days before the GABA uptake experiment in DMEM with 10% fetal bovine serum and 1% penicillin/streptomycin. […] Glacial acetic acid was added, and lysates were then determined on a liquid scintillator with QuantaSmart. […]

The conditions of data set [2]: cited from earlier work.

T1 sequence (P30531 whole entry): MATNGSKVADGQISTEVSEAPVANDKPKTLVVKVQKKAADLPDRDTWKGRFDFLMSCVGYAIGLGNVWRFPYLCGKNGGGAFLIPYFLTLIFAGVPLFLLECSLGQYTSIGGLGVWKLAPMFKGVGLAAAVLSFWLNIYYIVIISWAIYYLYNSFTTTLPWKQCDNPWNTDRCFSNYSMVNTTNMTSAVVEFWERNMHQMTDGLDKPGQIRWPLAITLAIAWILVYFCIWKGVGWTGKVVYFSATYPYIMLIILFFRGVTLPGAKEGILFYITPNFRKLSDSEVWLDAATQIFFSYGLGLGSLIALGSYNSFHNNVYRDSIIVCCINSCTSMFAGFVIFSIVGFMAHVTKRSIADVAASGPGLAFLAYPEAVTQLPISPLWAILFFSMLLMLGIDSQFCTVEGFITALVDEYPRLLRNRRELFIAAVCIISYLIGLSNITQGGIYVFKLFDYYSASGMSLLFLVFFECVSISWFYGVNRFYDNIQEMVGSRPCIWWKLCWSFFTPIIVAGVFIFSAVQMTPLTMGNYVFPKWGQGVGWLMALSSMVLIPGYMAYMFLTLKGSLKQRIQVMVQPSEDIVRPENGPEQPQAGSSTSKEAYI

As to `O=C(O)CCCc1ccccc1` [PBA, 4-phenylbutyric acid], the “GABA uptake normalized to its DMSO treated” value in data set [1] came out at 1.173±0.026. Moreover, in data set [2], the oral bioavailability entry was “orally bioavailable”.
